According to the supplement of paper PMC10307832:

Experiments:
Experiment in all cases: relative viability (nuclei count vs DMSO), 5 days (fraction); higher = more cells survive
Irinotecan + Pictilisib = compound: CCc1c2c(nc3ccc(OC(=O)N4CCC(N5CCCCC5)CC4)cc13)-c1cc3c(c(=O)n1C2)COC(=O)[C@]3(O)CC [Irinotecan] + CS(=O)(=O)N1CCN(Cc2cc3nc(-c4cccc5[nH]ncc45)nc(N4CCOCC4)c3s2)CC1 [Pictilisib] (partner 1 µM)
Method in brief: (§1)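 Values are medians from duplicate plates. Each reflects relative viability, defined as the nuclei count of treated wells over that of vehicle wells. Lung cancer cell lines in 1536-well plates were pin-tool dosed one day after seeding with one drug alone or with a fixed anchor-drug dose plus five library-drug doses (not always all listed) in √10 steps, then fixed, stained and imaged at 4× after 5 days.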

MK-8033 + Pemetrexed = compound: Cn1cc(-c2cnc3ccc4ccc(CS(=O)(=O)NCc5ccccn5)cc4c(=O)c3c2)cn1 [MK-8033] + Nc1nc2[nH]cc(CCc3ccc(C(=O)N[C@@H](CCC(=O)O)C(=O)O)cc3)c2c(=O)[nH]1 [Pemetrexed] (partner 0.2 µM)
Method in brief: as §1

Irinotecan + Linsitinib = compound: CCc1c2c(nc3ccc(OC(=O)N4CCC(N5CCCCC5)CC4)cc13)-c1cc3c(c(=O)n1C2)COC(=O)[C@]3(O)CC [Irinotecan] + C[C@]1(O)C[C@@H](c2nc(-c3ccc4ccc(-c5ccccc5)nc4c3)c3c(N)nccn32)C1 [Linsitinib] (partner 1 µM)
Method in brief: as §1

MK-8033 + Palbociclib = compound: Cn1cc(-c2cnc3ccc4ccc(CS(=O)(=O)NCc5ccccn5)cc4c(=O)c3c2)cn1 [MK-8033] + CC(=O)c1c(C)c2cnc(Nc3ccc(N4CCNCC4)cn3)nc2n(C2CCCC2)c1=O [Palbociclib] (partner 0.5 µM)
Method in brief: as §1

Row | Cell Line | relative viability (Irinotecan + Pictilisib; first compound 0.6325 µM) | relative viability (Irinotecan + Pictilisib; first compound 2 µM) | relative viability (Irinotecan + Pictilisib; first compound 6.325 µM) | relative viability (Irinotecan + Pictilisib; first compound 20 µM) | relative viability (MK-8033 + Pemetrexed; first compound 0.02 µM) | relative viability (MK-8033 + Pemetrexed; first compound 0.06325 µM) | relative viability (MK-8033 + Pemetrexed; first compound 0.2 µM) | relative viability (MK-8033 + Pemetrexed; first compound 0.6325 µM) | relative viability (MK-8033 + Pemetrexed; first compound 2 µM) | relative viability (Irinotecan + Linsitinib; first compound 0.6325 µM) | relative viability (Irinotecan + Linsitinib; first compound 2 µM) | relative viability (Irinotecan + Linsitinib; first compound 6.325 µM) | relative viability (Irinotecan + Linsitinib; first compound 20 µM) | relative viability (MK-8033 + Palbociclib; first compound 0.02 µM) | relative viability (MK-8033 + Palbociclib; first compound 0.06325 µM) | relative viability (MK-8033 + Palbociclib; first compound 0.2 µM) | relative viability (MK-8033 + Palbociclib; first compound 0.6325 µM) | relative viability (MK-8033 + Palbociclib; first compound 2 µM)
1 | NCI-H1915 | 0.341 | 0.261 | 0.185 | 0.195 | 0.51 | 0.491 | 0.497 | 0.472 | 0.428 | 0.374 | 0.238 | 0.187 | 0.171 | 0.538 | 0.525 | 0.496 | 0.492 | 0.483
2 | NCI-H358 | 0.265 | 0.387 | 0.282 | 0.171 | 0.165 | 0.181 | 0.158 | 0.167 | 0.164 | 0.681 | 0.671 | 0.36 | 0.251 | 0.144 | 0.129 | 0.128 | 0.136 | 0.151
3 | NCI-H2347 | 0.542 | 0.355 | 0.36 | 0.461 | 0.462 | 0.423 | 0.434 | 0.356 | 0.415 | 0.761 | 0.739 | 0.498 | 0.5 | 0.368 | 0.408 | 0.428 | 0.441 | 0.464
4 | H3255 | 0.302 | 0.272 | 0.222 | 0.23 | 0.56 | 0.49 | 0.571 | 0.582 | 0.565 | 0.803 | 0.439 | 0.26 | 0.298 | 0.307 | 0.361 | 0.309 | 0.307 | 0.336
5 | NCI-H2009 | 0.342 | 0.515 | 0.232 | 0.0786 | 1.01 | 1.01 | 0.923 | 1.08 | 0.997 | 0.876 | 0.493 | 0.262 | 0.221 | 0.251 | 0.23 | 0.249 | 0.214 | 0.304
6 | NCI-H460 | 0.328 | 0.314 | 0.0912 | 0.0812 | 0.0659 | 0.0591 | 0.0606 | 0.0625 | 0.0649 | 0.455 | 0.376 | 0.0862 | 0.0869 | 0.162 | 0.147 | 0.103 | 0.177 | 0.172
7 | COR-L 105 | 0.309 | 0.515 | 0.411 | 0.231 | 1.22 | 0.744 | 1.14 | 1.12 | 1.05 | 0.883 | 0.898 | 0.637 | 0.314 | 0.429 | 0.388 | 0.394 | 0.464 | 0.418
8 | BEN | 0.508 | 0.461 | 0.253 | 0.349 | 0.924 | 0.694 | 0.752 | 0.765 | 0.758 | 1.06 | 0.7 | 0.3 | 0.378 | 0.445 | 0.512 | 0.435 | 0.484 | 0.461
9 | NCI-H1993 | 0.695 | 0.816 | 0.628 | 0.443 | 0.537 | 0.58 | 0.498 | 0.575 | 0.46 | 0.688 | 0.608 | 0.643 | 0.693 | 0.563 | 0.566 | 0.453 | 0.649 | 0.424
